{"source": "patent US11311560B2", "about": "“Cyclic plasmenylethanolamines” (MED-LIFE DISCOVERIES LP, priority 2017, dated 2022)", "test_system": "Pex7 homozygous hypomorphic animals (Pex7^neo/neo)", "experiment": "2 week comparison of plasmalogen precursors: plasmalogen levels in plasma and liver (LC-MS)", "format": "in vivo, mouse", "experimental": "Pex7 homozygous hypomorphic animals (Pex7^neo/neo) were used as a model of rhizomelic chondrodysplasia punctata (RCDP). Mice were dosed with either PPI-1011 or PPI-1040 at equimolar concentrations of 100 mg/Kg and 89.7 mg/Kg respectively. PPI-1011 was formulated in Neobee M-5, at a concentration of 12.5 mg/mL and stored at −20° C. until the first treatment day after which point the remaining formulation was stored at 4° C. Oral gavage volumes were adjusted by mouse weight to ensure a 100 mg/kg dose. PPI-1040 was stored in a sealed ampoule in solution with dichloromethane under argon gas until immediately before use. At time of treatment the ampoule was opened and dichloromethane was evaporated off under nitrogen gas for 10 minutes. Neobee M-5 was then added and the solution and vortexed to generate a 22.4 mg/mL formulation. Animals were dosed via intraperitoneal injections with doses adjusted by weight to ensure an 89.7 mg/Kg dose to each animal. Animals were sacrificed 24 hours after the ninth treatment (week 1-Monday to Friday and week 2-Monday to Thursday). Blood samples were collected in EDTA tubes and then spun down in a clinical centrifuge. Plasma samples were stored at −80° C. until thawed for analysis. Tissue samples were harvested and flash frozen in liquid nitrogen and then stored at −80° C. All tissue samples were homogenized using liquid nitrogen, generating a fine powder.\nPlasma aliquots of 20 μL were analyzed, while tissues were aliquoted with anti-static polypropylene disposable milligram scoops prior to analysis. Water (200 μL) was added and samples were ice bath sonicated for 30 mins prior to the addition of 600 μL of ethyl acetate. Samples were mixed at 2000 rpm for 15 mins followed by a 10 min centrifugation at 3500 rpm. Tissue samples were diluted into an ethyl acetate (1:4) containing labeled internal standards [^13C-PlsEtn (C37^13C6H74NO7P) and ^13C-PtdEtn (C24^13C19H74NO8P)]. Water (80 μL) was added and samples were again stirred at 2000 rpm for 15 mins followed by a 2 min centrifugation at 3500 rpm. High-throughput analysis method was based on multiple reaction monitoring of one parent/fragment transition for the ion pairs, performed using liquid chromatography-mass spectrometry.", "key": {"[1]": {"settings": "89.7 mg/Kg intraperitoneal, 2 weeks"}, "[2]": {"settings": "PPI-1011 100 mg/Kg oral or PPI-1040 89.7 mg/Kg intraperitoneal, 2 weeks"}}}
{"compound": "CC/C=C\\C/C=C\\C/C=C\\C/C=C\\C/C=C\\C/C=C\\CCC(=O)OC(CO/C=C\\CCCCCCCCCCCCCC)COP1(=O)NCCO1", "note": "(centres unmarked) [PPI-1040, 1-(((Z)-hexadec-1-en-1-yl)oxy)-3-((2-oxido-1,3,2-oxazaphospholidin-2-yl)oxy)propan-2-yl (4Z,7Z,10Z,13Z,16Z,19Z)-docosa-4,7,10,13,16,19-hexaenoate]", "values": [{"measurement": "bioavailability and conversion to endogenous ethanolamine plasmalogen", "setting": "[1]", "result": "bioavailable in the mouse"}, {"measurement": "total 16:0 plasmalogen pool in plasma", "setting": "[1]", "result": "augmented the total 16:0 plasmalogen to control levels"}, {"measurement": "16:0 plasmalogen pool in liver", "setting": "[2]", "result": "augmented the 16:0 plasmalogen pool in the liver to control levels"}, {"measurement": "target plasmalogen (16:0/22:6) levels in liver", "setting": "[2]", "result": "to levels above control"}, {"measurement": "levels of the target plasmalogen (16:0/22:6) in the plasma", "setting": "PPI-1040 89.7 mg/Kg intraperitoneal, 2 weeks (9 treatments)", "result": 2, "unit": "× above control"}]}
